The record followed here is patent US8722656B2, “Cephalosporins useful as antibacterial agents” (Zoetis LLC, priority 2011, dated 2014).

Values after ≈ are worked out from the molar mass of the structure shown.

For one experiment, the system named is P. multo 43719. Nature of the experiment: Dilution antimicrobial susceptibility test (M07-A8), P. multocida. The note with it: Pasteurella multocida; antibacterial activity by dilution susceptibility test, isolate 43719. It counts as cell-based. The protocol:
(§1) Compounds of the present invention were tested against an assortment of Gram-negative and Gram-positive organisms using the industrial standard techniques described in Methods for Dilution Antimicrobial Susceptibility Tests for Bacteria That grow Aerobically; Approved Standard-Eighth Edition, […]-A8, Vol. 29 No. 2 Replaces […]-A7 Vol. 26 No. 2. […] When comparing the activity against these isolates with that of the marketed human health drug of cefepime (screened in the same panel), the exemplified compounds of the present invention show >200 times more selectivity over E. coli.

Another experiment has as its system M. haemo 43411. Description: Dilution antimicrobial susceptibility test (M07-A8), M. haemolytica. It counts as cell-based. As to conditions: Mannheimia haemolytica; antibacterial activity by dilution susceptibility test, isolate 43411. The protocol:
as §1

The next experiment relates to E. coli 25922. Nature of the experiment: Dilution antimicrobial susceptibility test (M07-A8), E. coli. It counts as cell-based, Escherichia coli. The note with it: for MIC: Escherichia coli, antibacterial activity by dilution susceptibility test, isolate 25922; for E. coli/P. multocida: selectivity for P. multocida over E. coli (ratio of the two values). The protocol:
as §1

For orientation: MIC means the lowest concentration found to suppress growth. Higher therefore signals a need for much substance.

As to `CNS(=O)(=O)c1ccc(C)c(CC2=C(C(=O)O)N3C(=O)[C@@H](NC(=O)/C(=N\OC)c4csc(N)n4)[C@H]3SC2)c1` [Example 24, (6R,7R)-7-{[(2Z)-2-(2-amino-1,3-thiazol-4-yl)-2-(methoxyimino)acetyl]amino}-3-[2-methyl-5-(methylsulfamoyl)benzyl]-8-oxo-5-thia-1-azabicyclo[4.2.0]oct-2-ene-2-carboxylic acid], the MIC against P. multo 43719 turned out to be 0.015 µg/mL (≈ 0.0258 µM); with M. haemo 43411, 0.008 µg/mL (≈ 0.0138 µM); with E. coli 25922, 4 µg/mL (≈ 6.89 µM). Also, the “E. coli/P. multocida” value in the experiment with E. coli 25922 is 266.

On to `CO/N=C(\C(=O)N[C@@H]1C(=O)N2C(C(=O)O)=C(Cc3cccc(N(C(=O)CS)C(C)C)c3)CS[C@H]12)c1csc(N)n1` [Example 13, (6R,7R)-7-{[(2Z)-2-(2-amino-1,3-thiazol-4-yl)-2-(methoxyimino)acetyl]amino}-8-oxo-3-{3-[propan-2-yl(sulfanylacetyl)amino]benzyl}-5-thia-1-azabicyclo[4.2.0]oct-2-ene-2-carboxylic acid], for which the MIC worked out at 0.03 µg/mL (≈ 0.0496 µM) against P. multo 43719, 0.06 µg/mL (≈ 0.0992 µM) in the experiment with M. haemo 43411 and 8 µg/mL (≈ 13.2 µM) against E. coli 25922. The “E. coli/P. multocida” value in the experiment with E. coli 25922 is listed as 266.

On to `CO/N=C(\C(=O)N[C@@H]1C(=O)N2C(C(=O)O)=C(Cc3ccc(S(C)(=O)=O)cc3C)CS[C@H]12)c1csc(N)n1` [Example 28, (6R,7R)-7-{[(2Z)-2-(2-amino-1,3-thiazol-4-yl)-2-(methoxyimino)acetyl]amino}-3-[2-methyl-4-(methylsulfonyl)benzyl]-8-oxo-5-thia-1-azabicyclo[4.2.0]oct-2-ene-2-carboxylic acid], for which the MIC against P. multo 43719 came to 0.03 µg/mL (≈ 0.053 µM); in the experiment with M. haemo 43411, 0.06 µg/mL (≈ 0.106 µM); in the experiment with E. coli 25922 it was 4 µg/mL (≈ 7.07 µM). The “E. coli/P. multocida” value with E. coli 25922 amounted to 133.
